Experimental data: patent US8530667B2, “Herbicides” (Syngenta Limited, priority 2007, dated 2013)

What was measured:
Assay type in all cases: in vivo
[1] = system: Setaria faberi (SETFA); experiment: Example A pre-emergence herbicidal activity, glasshouse pot test; conditions: evaluated 19 or 20 days later, read-out: Pre-Emergence Activity SETFA (100=total damage to plant; 0=no damage to plant); for pest or weed control at 250 g/ha: Rate 250 g/ha
Description: (§1) Seeds of a variety of test species were sown in standard soil in pots. After cultivation for one day (pre-emergence) or after 10 days cultivation (post-emergence) under controlled conditions in a glasshouse, the plants were sprayed with an aqueous spray solution derived from the formulation of the technical active ingredient in 0.6 ml acetone and 45 ml formulation solution containing 10.6% Emulsogen EL (Registry number 61791-12-6), 42.2% N-methylpyrrolidone, 42.2% dipropylene glycol monomethyl ether (Registry number 34590-94-8) and 0.2% X-77 (Registry number 11097-66-8). The test plants were then grown in a greenhouse under optimum conditions until, 14 or 15 days later for post-emergence and 19 or 20 days for pre-emergence, the test was evaluated (100=total damage to plant; 0=no damage to plant). Alopecurus myosuroides (ALOMY), Avena fatua (AVEFA), Lolium perenne (LOLPE), Setaria faberi (SETFA), Digitaria sanguinalis (DIGSA), Echinochloa crus-galli (ECHCG)

[2] = system: Digitaria sanguinalis (DIGSA); experiment: as above; conditions: evaluated 19 or 20 days later, read-out: Pre-Emergence Activity DIGSA (100=total damage to plant; 0=no damage to plant); for pest or weed control at 250 g/ha: Rate 250 g/ha
Description: as §1

[3] = system: Lolium perenne (LOLPE); experiment: as above; conditions: evaluated 19 or 20 days later, read-out: Pre-Emergence Activity LOLPE (100=total damage to plant; 0=no damage to plant); for pest or weed control at 250 g/ha: Rate 250 g/ha
Description: as §1

[4] = system: Echinochloa crus-galli (ECHCG); experiment: as above; conditions: evaluated 19 or 20 days later, read-out: Pre-Emergence Activity ECHCG (100=total damage to plant; 0=no damage to plant); for pest or weed control at 250 g/ha: Rate 250 g/ha
Description: as §1

[5] = system: Alopecurus myosuroides (ALOMY); experiment: as above; conditions: evaluated 19 or 20 days later, read-out: Pre-Emergence Activity ALOMY (100=total damage to plant; 0=no damage to plant); for pest or weed control at 250 g/ha: Rate 250 g/ha
Description: as §1

[6] = system: Avena fatua (AVEFA); experiment: as above; conditions: evaluated 19 or 20 days later, read-out: Pre-Emergence Activity AVEFA (100=total damage to plant; 0=no damage to plant); for pest or weed control at 250 g/ha: Rate 250 g/ha
Description: as §1

[7] = system: Setaria faberi (SETFA); experiment: Example A post-emergence herbicidal activity, glasshouse pot test; conditions: Rate 125 g/ha, evaluated 14 or 15 days later, read-out: Post-Emergence Activity SETFA (100=total damage to plant; 0=no damage to plant)
Description: as §1

[8] = system: Digitaria sanguinalis (DIGSA); experiment: as above; conditions: Rate 125 g/ha, evaluated 14 or 15 days later, read-out: Post-Emergence Activity DIGSA (100=total damage to plant; 0=no damage to plant)
Description: as §1

[9] = system: Lolium perenne (LOLPE); experiment: as above; conditions: Rate 125 g/ha, evaluated 14 or 15 days later, read-out: Post-Emergence Activity LOLPE (100=total damage to plant; 0=no damage to plant)
Description: as §1

[10] = system: Echinochloa crus-galli (ECHCG); experiment: as above; conditions: Rate 125 g/ha, evaluated 14 or 15 days later, read-out: Post-Emergence Activity ECHCG (100=total damage to plant; 0=no damage to plant)
Description: as §1

[11] = system: Alopecurus myosuroides (ALOMY); experiment: as above; conditions: Rate 125 g/ha, evaluated 14 or 15 days later, read-out: Post-Emergence Activity ALOMY (100=total damage to plant; 0=no damage to plant)
Description: as §1

[12] = system: Avena fatua (AVEFA); experiment: as above; conditions: Rate 125 g/ha, evaluated 14 or 15 days later, read-out: Post-Emergence Activity AVEFA (100=total damage to plant; 0=no damage to plant)
Description: as §1

[13] = system: Setaria faberi (SETFA); experiment: Example B post-emergence herbicidal activity, glasshouse pot test; conditions: 312 h, rate 1000 g/ha, evaluated after 13 days, read-out: Post-emergence activity SETFA (100=total damage to plant; 0=no damage to plant)
Summary of the method: (§2)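 Seeds sown in standard soil in pots were sprayed 1 day (pre-emergence) or 8 days (post-emergence) after sowing with the active ingredient in acetone/water (50:50) plus 0.5% Tween 20. Plants were kept in a glasshouse at 24/16° C day/night, 14 h light, 65% humidity. Damage was scored after 13 days (0–100).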

[14] = system: Amaranthus retoflexus (AMARE); experiment: as above; conditions: Amaranthus retroflexus, 312 h, rate 1000 g/ha, evaluated after 13 days, read-out: Post-emergence activity AMARE (100=total damage to plant; 0=no damage to plant)
Summary of the method: as §2

[15] = system: Echinochloa crus-galli (ECHCG); experiment: as above; conditions: 312 h, rate 1000 g/ha, evaluated after 13 days, read-out: Post-emergence activity ECHCG (100=total damage to plant; 0=no damage to plant)
Summary of the method: as §2

[16] = system: Alopecurus myosuroides (ALOMY); experiment: as above; conditions: 312 h, rate 1000 g/ha, evaluated after 13 days, read-out: Post-emergence activity ALOMY (100=total damage to plant; 0=no damage to plant)
Summary of the method: as §2

[17] = system: Avena fatua (AVEFA); experiment: as above; conditions: 312 h, rate 1000 g/ha, evaluated after 13 days, read-out: Post-emergence activity AVEFA (100=total damage to plant; 0=no damage to plant)
Summary of the method: as §2

SMILES | pest or weed control at 250 g/ha [1] | pest or weed control at 250 g/ha [2] | pest or weed control at 250 g/ha [3] | pest or weed control at 250 g/ha [4] | pest or weed control at 250 g/ha [5] | pest or weed control at 250 g/ha [6] | pest or weed control at 125 g/ha [7] | pest or weed control at 125 g/ha [8] | pest or weed control at 125 g/ha [9] | pest or weed control at 125 g/ha [10] | pest or weed control at 125 g/ha [11] | pest or weed control at 125 g/ha [12] | also measured
CCc1csc(CC)c1C1C(=O)[C@@H]2[C@H](C1=O)[C@H]1CC[C@@H]2O1 (some centres unmarked) [Compound T15] | 20% | 30% | 10% | 90% | 70% | 10% | 70% | 40% | 40% | 90% | 50% | 40% | –
COc1ccc(-c2nc(C3C(=O)[C@@H]4[C@H](C3=O)[C@H]3CC[C@@H]4O3)c(C)s2)cc1 (some centres unmarked) [Compound T21] | 100% | 100% | 90% | 100% | 90% | 70% | 80% | 80% | 40% | 100% | 50% | 20% | pest or weed control at 1000 g/ha [13]: 100%; pest or weed control at 1000 g/ha [14]: 0%; pest or weed control at 1000 g/ha [15]: 100%; pest or weed control at 1000 g/ha [16]: 100%; pest or weed control at 1000 g/ha [17]: 100%
Cc1sc(-c2ccc(Cl)cc2)nc1C1C(=O)[C@@H]2[C@H](C1=O)[C@H]1CC[C@@H]2O1 (some centres unmarked) [Compound T22] | 100% | 100% | 100% | 100% | 100% | 100% | 60% | 100% | 20% | 100% | 70% | 70% | –
CCc1sc(-c2ccc(Cl)cc2)nc1C1C(=O)[C@@H]2[C@H](C1=O)[C@H]1CC[C@@H]2O1 (some centres unmarked) [Compound T23, 4-[2-(4-chloro-phenyl)-5-ethyl-thiazol-4-yl]-10-oxa-tricyclo[5.2.1.0*2,6*]decane-3,5-dione] | – | – | – | – | – | – | 100% | 100% | 100% | 100% | 100% | 100% | pest or weed control at 500 g/ha ([1]; Rate 500 g/ha): 100%; pest or weed control at 500 g/ha ([2]; Rate 500 g/ha): 100%; pest or weed control at 500 g/ha ([3]; Rate 500 g/ha): 90%; pest or weed control at 500 g/ha ([4]; Rate 500 g/ha): 100%; pest or weed control at 500 g/ha ([5]; Rate 500 g/ha): 100%; pest or weed control at 500 g/ha ([6]; Rate 500 g/ha): 90%
